According to paper PMC11285948, “The effects of CYP2B6 inactivators on the metabolism of ciprofol” (PLOS ONE, 2024):
Several values for one entry are separate records, joined by “and”; a condition that tells them apart may be missing. Identical values can stand only once.

Assays:
SD rats = test: Duration of loss of righting reflex (LORR) after ciprofol injection in rats; assay type: in vivo, rat; conditions: psoralen 27 mg·kg^-1 or clopidogrel 7.5 mg·kg^-1 gavage daily 7 d, then ciprofol 2.4 mg·kg^-1 i.v.
Experimental: Twenty-four SD rats were randomly and equally divided into three groups: the control group, psoralen group and clopidogrel group. The administration scheme was as follows: the control group received 0.5% carboxy methyl cellulose by gavage (1 mL·200 g^-1), the psoralen group received 27 mg·kg^-1 psoralen by gavage, and the clopidogrel group was gavaged with 7.5 mg·kg^-1 clopidogrel. […] All rats were treated once daily for seven days. Each rat was injected with 2.4 mg·kg^-1 ciprofol via the tail vein 12 h after the end of dosing on Day 7. Rats that received ciprofol injection were placed on a flat and soft insulation pad. Timekeeping began when the rats were in the supine position and lost the righting reflex and ended when the rats could turn to the prone position successfully. The duration of loss of righting reflex (LORR) in each rat was measured. During this period, approximately 300 μL of blood was collected from the inner canthus at 2, 4, 8, 12, 16, 20, 30, 45, and 60 min after ciprofol administration, and the plasma was separated. The plasma was processed and measured as described in Section 2.4.3, and DAS 2.0 software and a noncompartmental model were used to analyse the pharmacokinetic parameters.
IBM SPSS Statistics 27 software was used to analyse the main pharmacokinetic parameters, and GraphPad Prism 8.0.2 software was used for graphical visualization. […]

[1] = tested on: ciprofol metabolism in human liver microsomes (HLMs); test: Effects of psoralen and clopidogrel on ciprofol metabolism in HLM incubation system (substrate elimination, HPLC-MS/MS); assay type: in vitro ADME; conditions: for IC50: 10 min preincubation, n = 3; for Relative residual activity (ciprofol metabolism): samples 1-3 and Mean; for degree of inhibitory effect on ciprofol metabolism: grading after ref 23
Experimental: (§1) The volume of the incubation system was 200 μL and included 2 μL of substrate (ciprofol), 8 μL of rat liver microsomes (RLMs) or 6 μL of human liver microsomes (HLMs), 12 μL of NADPH generation system of solution (solution A 10 μL, solution B 2 μL), and the remaining volume was PBS. The incubation was performed in a water bath at a constant temperature of 37°C, and each sample was incubated three times in parallel.
(§2) The incubation system was removed from the water bath, and the reaction was terminated immediately by adding 800 μL of reaction termination solution (acetonitrile solution containing 5 μg·mL^-1 D6-ciprofol at 4°C). The mixture was vortexed for 2 min and centrifuged for 15 min, after which the supernatant was transferred to an autosampler vial for HPLC-MS/MS detection.
(§3) The incubation system was prepared according to the optimal incubation conditions, and different concentrations of psoralen or clopidogrel solution were added to the blank incubation system at concentrations of 0, 5, 12.5, 25, 50, 75, 100, 150, and 200 μmol·L^-1 and 0, 0.2, 0.5, 1, 2, 5, 10, 25, and 50 μmol·L^-1, respectively. The incubation system was preincubated in a water bath (37°C) for 10 min, and ciprofol was added to the system and subsequently incubated subsequently. The effects of psoralen and clopidogrel on the metabolism of ciprofol were investigated based on ΔC.
(§4) The substrate elimination method was employed in this study, and GraphPad Prism 8.0.2 software was used for statistical processing, including determination of the kinetic parameters of ciprofol metabolism and the IC50 values of psoralen and clopidogrel for ciprofol metabolism. The maximum velocity (Vmax), Michaelis constant (Km) and intrinsic clearance (CLint) were calculated using the […]: V=Vmax×[S]/Km+[S] CLint=Vmax/Km

[2] = tested on: recombinant human CYP2B6 enzyme; conditions: cited from earlier work; for inhibition of recombinant human CYP2B6 enzyme activity: psoralen: ref Ji et al. 13, clopidogrel (bupropion as substrate): ref 31, 32
[3] = tested on: ciprofol metabolism in rat liver microsomes (RLMs); test: Effects of psoralen and clopidogrel on ciprofol metabolism in RLM incubation system (substrate elimination, HPLC-MS/MS); assay type: in vitro ADME; conditions: for IC50: 10 min preincubation, n = 3; for Relative residual activity (ciprofol metabolism): samples 1-3 and Mean; for degree of inhibitory effect on ciprofol metabolism: grading after ref 23
Experimental: as §1, §2, §3, §4

ciprofol metabolism = tested on: ciprofol metabolism; design: method as in PMID 37309663; conditions: clinical trials NCT03758469, NCT04145583, NCT05181007; cited from earlier work

COC(=O)[C@H](c1ccccc1Cl)N1CCc2sccc2C1 [clopidogrel]
prolongation of duration of LORR compared with control group (SD rats): 23.0%
IC50 [1]: 2.56 µM
Relative residual activity (ciprofol metabolism) ([1]; Cclopidogrel 0.20 μM): 88.53% and 84.40% and 91.91%
Relative residual activity (ciprofol metabolism) ([1]; Cclopidogrel 0.50 μM): 70.42% and 76.69% and 80.24%
Relative residual activity (ciprofol metabolism) ([1]; Cclopidogrel 1.00 μM): 66.15% and 57.16% and 70.67%
Relative residual activity (ciprofol metabolism) ([1]; Cclopidogrel 2.00 μM): 58.07% and 44.78% and 46.16%
Relative residual activity (ciprofol metabolism) ([1]; Cclopidogrel 5.00 μM): 36.69% and 31.97% and 37.99%
Relative residual activity (ciprofol metabolism) ([1]; Cclopidogrel 10.00 μM): 32.45% and 25.93% and 29.26%
Relative residual activity (ciprofol metabolism) ([1]; Cclopidogrel 25.00 μM): 23.23% and 27.69% and 23.00%
Relative residual activity (ciprofol metabolism) ([1]; Cclopidogrel 50.00 μM): 19.78% and 11.54% and 13.21%
degree of inhibitory effect on ciprofol metabolism [1]: moderate inhibitory effects
inhibition of recombinant human CYP2B6 enzyme activity [2]: strongly inhibits
inactivation potency relative to its thiolactone metabolite ([2]; recombinant human CYP2B6, bupropion as substrate): 11 times
IC50 [3]: 6.38 µM
Relative residual activity (ciprofol metabolism) ([3]; Cclopidogrel 0.20 μM): 96.32% and 84.60% and 95.79%
Relative residual activity (ciprofol metabolism) ([3]; Cclopidogrel 0.50 μM): 90.44% and 83.76% and 96.63%
Relative residual activity (ciprofol metabolism) ([3]; Cclopidogrel 1.00 μM): 88.66% and 86.92% and 76.64%
Relative residual activity (ciprofol metabolism) ([3]; Cclopidogrel 2.00 μM): 75.16% and 58.26% and 69.88%
Relative residual activity (ciprofol metabolism) ([3]; Cclopidogrel 5.00 μM): 50.35% and 43.15% and 60.40%
Relative residual activity (ciprofol metabolism) ([3]; Cclopidogrel 10.00 μM): 42.20% and 50.96% and 39.90%
Relative residual activity (ciprofol metabolism) ([3]; Cclopidogrel 25.00 μM): 32.17% and 28.83% and 23.03%
Relative residual activity (ciprofol metabolism) ([3]; Cclopidogrel 50.00 μM): 11.08% and 18.95% and 13.85%
degree of inhibitory effect on ciprofol metabolism [3]: moderate inhibitory effects

Cc1cccc(Nc2ccccc2C(=O)O)c1C [mefenamic acid]
clinical effect on ciprofol metabolism (ciprofol metabolism): no clinical effect

O=c1ccc2cc3ccoc3cc2o1 [psoralen]
prolongation of duration of LORR compared with control group (SD rats): 16.1%
IC50 [1]: 34 µM
Relative residual activity (ciprofol metabolism) ([1]; Cpsoralen 5 μM): 85.57% and 90.39% and 83.88%
Relative residual activity (ciprofol metabolism) ([1]; Cpsoralen 5 μM, mean): 86.61%
Relative residual activity (ciprofol metabolism) ([1]; Cpsoralen 12.5 μM): 76.45% and 75.70% and 82.09%
Relative residual activity (ciprofol metabolism) ([1]; Cpsoralen 12.5 μM, mean): 78.08%
Relative residual activity (ciprofol metabolism) ([1]; Cpsoralen 25 μM): 55.36% and 59.73% and 68.81%
Relative residual activity (ciprofol metabolism) ([1]; Cpsoralen 25 μM, mean): 61.30%
Relative residual activity (ciprofol metabolism) ([1]; Cpsoralen 50 μM): 40.24% and 31.49% and 40.07%
Relative residual activity (ciprofol metabolism) ([1]; Cpsoralen 50 μM, mean): 37.27%
Relative residual activity (ciprofol metabolism) ([1]; Cpsoralen 75 μM): 32.40% and 26.96% and 29.47%
Relative residual activity (ciprofol metabolism) ([1]; Cpsoralen 75 μM, mean): 29.61%
Relative residual activity (ciprofol metabolism) ([1]; Cpsoralen 100 μM): 17.05% and 23.45% and 21.45%
Relative residual activity (ciprofol metabolism) ([1]; Cpsoralen 100 μM, mean): 20.65%
Relative residual activity (ciprofol metabolism) ([1]; Cpsoralen 200 μM): 6.19% and 12.50% and 10.40%
Relative residual activity (ciprofol metabolism) ([1]; Cpsoralen 200 μM, mean): 9.70%
degree of inhibitory effect on ciprofol metabolism [1]: mild inhibitory effects
inhibition of recombinant human CYP2B6 enzyme activity [2]: moderately inhibit
IC50 [3]: 63.3 µM
Relative residual activity (ciprofol metabolism) ([3]; Cpsoralen 5 μM): 93.09% and 97.46% and 90.99%
Relative residual activity (ciprofol metabolism) ([3]; Cpsoralen 5 μM, mean): 93.85%
Relative residual activity (ciprofol metabolism) ([3]; Cpsoralen 12.5 μM): 88.25% and 94.23% and 84.23%
Relative residual activity (ciprofol metabolism) ([3]; Cpsoralen 12.5 μM, mean): 88.90%
Relative residual activity (ciprofol metabolism) ([3]; Cpsoralen 25 μM): 79.18% and 75.1% and 87.55%
Relative residual activity (ciprofol metabolism) ([3]; Cpsoralen 25 μM, mean): 80.61%
Relative residual activity (ciprofol metabolism) ([3]; Cpsoralen 50 μM): 57.26% and 67.87% and 65.65%
Relative residual activity (ciprofol metabolism) ([3]; Cpsoralen 50 μM, mean): 63.59%
Relative residual activity (ciprofol metabolism) ([3]; Cpsoralen 75 μM): 32.92% and 44.27% and 51.97%
Relative residual activity (ciprofol metabolism) ([3]; Cpsoralen 75 μM, mean): 43.05%
Relative residual activity (ciprofol metabolism) ([3]; Cpsoralen 100 μM): 29.87% and 38.51% and 22.31%
Relative residual activity (ciprofol metabolism) ([3]; Cpsoralen 100 μM, mean): 30.23%
Relative residual activity (ciprofol metabolism) ([3]; Cpsoralen 150 μM): 15.05% and 20.24% and 25.14%
Relative residual activity (ciprofol metabolism) ([3]; Cpsoralen 150 μM, mean): 20.14%
Relative residual activity (ciprofol metabolism) ([3]; Cpsoralen 200 μM): 14.67% and 20.19% and 12.3%
Relative residual activity (ciprofol metabolism) ([3]; Cpsoralen 200 μM, mean): 15.72%
degree of inhibitory effect on ciprofol metabolism [3]: mild inhibitory effects

CO[C@H]1/C=C/O[C@@]2(C)Oc3c(C)c(O)c4c(O)c(c(/C=N/N5CCN(C)CC5)c(O)c4c3C2=O)NC(=O)/C(C)=C\C=C\[C@H](C)[C@H](O)[C@@H](C)[C@@H](O)[C@@H](C)[C@H](OC(C)=O)[C@@H]1C [rifampicin]
clinical effect on ciprofol metabolism (ciprofol metabolism): no clinical effect
